Results: patent publication US20250064712A1, “METHOD FOR AMPLIFYING EXPRESSION OF EPIDERMAL BARRIER FUNCTION-RELATED GENE” (J-Network, Inc., priority 2023, published 2025)

Key:
PPARA gene = experiment: Test for amplification of mRNA expression of PPARA gene (quantitative real-time PCR, GAPDH internal standard); format: cell-based, human; details: NHEKs, GDS23 50 μM, culture time 24, 30, 36 hr, control = 1
Experimental: (§1) Normal human epidermal keratinocytes (NHEKs) were seeded on a 96-well plate at a cell density of 2.0×10^4cells/well using HuMedia-KG2 medium (manufactured by Kurabo Industries Ltd.), and cultured under the conditions of 37° C. and 5% CO2 for 24 hours.
(§2) Thereafter, a diacylglycerol PEG adduct was added thereto using HuMedia-KB2 medium (manufactured by Kurabo Industries Ltd.), and each was cultured under the conditions of 37° C. and 5% CO2 for a predetermined time. Table 1 represents the target gene, the types of diacylglycerol PEG adduct added, the adding amount, and the culture time. A control (no addition) was also cultured under the same conditions.
(§3) After the cells were cultured for each predetermined time, RNA was extracted from the cells of each sample and control. The extracted RNA was reverse-transcribed to prepare cDNA, and the mRNA of the target gene was quantified by quantitative real-time PCR expression analysis. GAPDH (glyceraldehyde 3-phosphate dehydrogenase) was used as an internal standard.
(§4) In the analysis, the mRNA expression level of each target gene was corrected with the value of the expression level of GAPDH, which is an internal standard in the same sample, and the correction value of the sample was calculated as a relative expression level when the correction value of the control was set to 1.

CERS3 gene = experiment: Test for amplification of mRNA expression of CERS3 gene (quantitative real-time PCR, GAPDH internal standard); format: cell-based, human; details: NHEKs, GDS23 50 μM, culture time 36 hr, control = 1
Experimental: as §1, §2, §3, §4

SULT2B1 gene = experiment: Test for amplification of mRNA expression of SULT2B1 gene (quantitative real-time PCR, GAPDH internal standard); format: cell-based, human; details: NHEKs, control = 1
Experimental: as §1, §2, §3, §4

loricrin = experiment: Test for detecting production of loricrin, loricrin immunostaining method; format: cell-based, human; details: LabCyte EPI-MODEL24 6D, 50 μL of 2% GDS23 solution applied for 24 hours, collected 9 days after application, vs purified water control
Experimental: A test for detecting the production of loricrin encoded by the LOR genes was performed using two staining methods: an immunostaining method using an anti-loricrin antibody and a hematoxylin-eosin staining method.
Treatment of epidermal model Three-dimensional cultured human epidermal model (LabCyte EPI-MODEL24 6D: manufactured by Japan Tissue Engineering Co., Ltd.) was cultured in a medium (assay medium: manufactured by Japan Tissue Engineering Co., Ltd.) at 37° C. for 24 hours. […]
After the blocking agent was aspirated, an anti-loricrin antibody (manufactured by Proteintech Japan) (diluted 50 times with a 3% BSA/PBS solution) was added to the section, and the primary antibody reaction was carried out overnight at 4° C. Thereafter, a Goat Anti-Rabbit IgG H&L (Alexa Fluor (registered trademark) 488 antibody (manufactured by Abcam PLC) (diluted 250 times with a 3% BSA/PBS solution) was added thereto, and the secondary antibody reaction was carried out for 1 hour at room temperature in a dark place. And then, nuclear staining was performed with DAPI diluted 200 times with a 3% BSA/PBS solution. A fluorescence microscope (BZ-X810, KEYENCE) was then used to observe the green and blue fluorescence. The green fluorescence indicates the presence of loricrin. The blue fluorescence stains the nuclei of the epidermal model to confirm that the cells are normal.

[1] = tested on: Three-dimensional cultured human epidermal model; experiment: Hematoxylin-eosin staining and DAPI nuclear staining of epidermal model (cell abnormality check); format: cell-based; details: LabCyte EPI-MODEL24 6D, 50 μL of 2% GDS23 solution applied for 24 hours, collected 9 days after application
Experimental: Treatment of epidermal model Three-dimensional cultured human epidermal model (LabCyte EPI-MODEL24 6D: manufactured by Japan Tissue Engineering Co., Ltd.) was cultured in a medium (assay medium: manufactured by Japan Tissue Engineering Co., Ltd.) at 37° C. for 24 hours.
Thereafter, the medium was exchanged, and 50 μL of a sample prepared with purified water (2% preparation solution of GDS23) was applied to the surfaces of the stratum corneum, followed by continuous culture for 24 hours. The control for comparison was applied with purified water only.
Subsequently, the sample on the surface of the stratum corneum of the epidermal model was sucked up with a sterilized cotton swab to remove the excess sample, and then the epidermal model was continuously cultured without newly applying the sample on the surface of the stratum corneum, and the epidermal model was collected 9 days after the sample was applied.
After the blocking agent was aspirated, an anti-loricrin antibody (manufactured by Proteintech Japan) (diluted 50 times with a 3% BSA/PBS solution) was added to the section, and the primary antibody reaction was carried out overnight at 4° C. […]

LOR gene = experiment: Test for amplification of mRNA expression of LOR gene (quantitative real-time PCR, GAPDH internal standard); format: cell-based, human; details: NHEKs, GDM12 100 μM, culture time 30 hr, control = 1
Experimental: as §1, §2, §3, §4

IVL gene = experiment: Test for amplification of mRNA expression of IVL gene (quantitative real-time PCR, GAPDH internal standard); format: cell-based, human; details: NHEKs, GDM12 100 μM, culture time 30 hr, control = 1
Experimental: as §1, §2, §3, §4

| Substance | relative expression level of PPARA genes (PPARA gene) | relative expression level of CERS3 genes (CERS3 gene) | relative expression level of SULT2B1 genes (SULT2B1 gene; GDS23 50 μM, culture time 24 hr) | production amount of loricrin in the stratum corneum (green fluorescence) (loricrin) | abnormality in the cells of the epidermal model (blue fluorescence, hematoxylin-eosin staining) [1] | relative expression level of LOR genes (LOR gene) | relative expression level of IVL genes (IVL gene) | relative expression level of SULT2B1 genes (SULT2B1 gene; GDM12 100 μM, culture time 30 hr) |
| --- | --- | --- | --- | --- | --- | --- | --- | --- |
| PEG-23 glycerol distearate [GDS23] | about 2.2 times that of the control | about 2 times that of the control | about 1.2 times that of the control | higher than that of the control epidermal model | no abnormality in the cells of the epidermal model |  |  |  |
| PEG-12 glycerol dimyristate [GDM12] |  |  |  |  |  | about 1.3 times that of the control | about 1.5 times that of the control | about 1.6 times that of the control |
